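Assay format: 96-well plates, 48-hour exposure. TGI marks complete inhibition of growth.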
Legend:
Assay in all cases: NCI tumour cell line growth inhibition, 48 h
OVCAR-8 ovarian = system: OVCAR-8 ovarian
HOP-92 NSCLC = system: HOP-92 NSCLC
HCT-116 colon = system: HCT-116 colon
SK-MEL-28 melanoma = system: SK-MEL-28 melanoma
HT29 colon = system: HT29 colon
A498 renal = system: A498 renal
U251 CNS = system: U251 CNS
SW-620 colon = system: SW-620 colon
XF 498 CNS = system: XF 498 CNS
HL-60(TB) leukemia = system: HL-60(TB) leukemia
MOLT-4 leukemia = system: MOLT-4 leukemia
NCI-H460 lung = system: NCI-H460 lung
SN12C renal = system: SN12C renal
NCI-H226 lung = system: NCI-H226 lung
CAKI-1 renal = system: CAKI-1 renal
SF-539 CNS = system: SF-539 CNS
DMS 273 small cell lung = system: DMS 273 small cell lung
LOX IMVI melanoma = system: LOX IMVI melanoma
SF-295 CNS = system: SF-295 CNS
ACHN renal = system: ACHN renal
DMS 114 small cell lung = system: DMS 114 small cell lung
M19-MEL melanoma = system: M19-MEL melanoma
UACC-257 melanoma = system: UACC-257 melanoma
KM20L2 colon = system: KM20L2 colon
OVCAR-4 ovarian = system: OVCAR-4 ovarian
HOP-62 NSCLC = system: HOP-62 NSCLC
SK-OV-3 ovarian = system: SK-OV-3 ovarian
EKVX NSCLC = system: EKVX NSCLC
HCT-15 colon = system: HCT-15 colon
786-0 renal = system: 786-0 renal
HCC-2998 colon = system: HCC-2998 colon
LXFL 529 NSCLC = system: LXFL 529 NSCLC
UACC-62 melanoma = system: UACC-62 melanoma
OVCAR-3 ovarian = system: OVCAR-3 ovarian
A549 NSCLC = system: A549 NSCLC
RPMI-8226 leukemia = system: RPMI-8226 leukemia
MALME-3M melanoma = system: MALME-3M melanoma
COLO 205 colon = system: COLO 205 colon
UO-31 renal = system: UO-31 renal
DLD-1 colon = system: DLD-1 colon
SF-268 CNS = system: SF-268 CNS
CCRF-CEM leukemia = system: CCRF-CEM leukemia
IGROV1 ovarian = system: IGROV1 ovarian
M14 melanoma = system: M14 melanoma
OVCAR-5 ovarian = system: OVCAR-5 ovarian
NCI-H23 lung = system: NCI-H23 lung
SNB-78 CNS = system: SNB-78 CNS
KM12 colon = system: KM12 colon
HOP-18 NSCLC = system: HOP-18 NSCLC
TK-10 renal = system: TK-10 renal
NCI-H522 lung = system: NCI-H522 lung
SR leukemia = system: SR leukemia
SNB-75 CNS = system: SNB-75 CNS
RXF 393 renal = system: RXF 393 renal
SNB-19 CNS = system: SNB-19 CNS
K-562 leukemia = system: K-562 leukemia
SK-MEL-5 melanoma = system: SK-MEL-5 melanoma
SK-MEL-2 melanoma = system: SK-MEL-2 melanoma

Measured: TGI

O=c1nc(-c2ccccc2)cc(-c2ccccc2O)[nH]1
not listed: SK-MEL-5 melanoma | SK-MEL-2 melanoma
> 100 µM: all other assays above

Cc1cccc(C)c1NC(=O)C(=O)CC(=O)c1cccc([N+](=O)[O-])c1
not listed: LOX IMVI melanoma | DMS 114 small cell lung | SK-OV-3 ovarian | HCC-2998 colon | RXF 393 renal
> 100 µM: all other assays above

From PubChem BioAssay (NCI)
